Converted amounts (≈) assume the structure as drawn.
Experiments:
Assay type in all cases: functional
Escherichia coli = experiment: Minimum inhibitory concentration (MIC)preventing growth of Escherichia coli
Staphylococcus aureus = experiment: Minimum inhibitory concentration (MIC) preventing growth of […]
Bacillus subtilis = experiment: Minimum inhibitory concentration (MIC) preventing growth of Bacillus subtilis
Enterococcus faecalis = experiment: Minimum inhibitory concentration (MIC) preventing growth of Streptococcus faecalis ATCC 10541
Klebsiella pneumoniae = experiment: Minimum inhibitory concentration (MIC)preventing growth of Klebsiella pneumoniae
Enterobacter cloacae = experiment: Minimum inhibitory concentration (MIC)preventing growth of Enterobacter cloacae
Pseudomonas aeruginosa = experiment: Minimum inhibitory concentration (MIC)preventing growth of Pseudomonas aeruginosa
Proteus vulgaris = experiment: Minimum inhibitory concentration (MIC) preventing growth of Proteus vulgaris
Morganella morganii = experiment: Minimum inhibitory concentration (MIC) preventing growth of Morganella morganii
[1] = tested on: Staphylococcus epidermidis; experiment: Minimum inhibitory concentration (MIC) preventing growth of Staphylococcus epidermidis
Bacillus cereus = experiment: Minimum inhibitory concentration (MIC) preventing growth of Bacillus cereus

Structure (SMILES)	MIC (Escherichia coli) [µg/mL]	MIC (Staphylococcus aureus) [µg/mL]	MIC (Bacillus subtilis) [µg/mL]	MIC (Enterococcus faecalis) [µg/mL]	MIC (Klebsiella pneumoniae) [µg/mL]	MIC (Enterobacter cloacae) [µg/mL]	MIC (Pseudomonas aeruginosa) [µg/mL]	MIC (Proteus vulgaris) [µg/mL]	MIC (Morganella morganii) [µg/mL]	MIC [1] [µg/mL]	MIC (Bacillus cereus) [µg/mL]
CCn1cc(C(=O)O)c(=O)c2cc(F)c(N3CC(C)(N)C3)nc21	0.25 (≈ 0.78 µM)	1 (≈ 3.12 µM)	0.25 (≈ 0.78 µM)	2 (≈ 6.24 µM)	0.12 (≈ 0.375 µM)	0.25 (≈ 0.78 µM)	2 (≈ 6.24 µM)	1 (≈ 3.12 µM)	0.25 (≈ 0.78 µM)	1 (≈ 3.12 µM)	1 (≈ 3.12 µM)
CC1(N)CN(c2c(F)cc3c(=O)c(C(=O)O)cn(CCF)c3c2F)C1	1 (≈ 2.81 µM)	1 (≈ 2.81 µM)	0.25 (≈ 0.704 µM)	4 (≈ 11.3 µM)	1 (≈ 2.81 µM)	1 (≈ 2.81 µM)	4 (≈ 11.3 µM)	1 (≈ 2.81 µM)	1 (≈ 2.81 µM)	1 (≈ 2.81 µM)	1 (≈ 2.81 µM)
CNC1(C)CN(c2nc3c(cc2F)c(=O)c(C(=O)O)cn3C(C)(C)C)C1	0.06 (≈ 0.166 µM)	0.12 (≈ 0.331 µM)	0.015 (≈ 0.0414 µM)	1 (≈ 2.76 µM)	0.015 (≈ 0.0414 µM)	0.12 (≈ 0.331 µM)	2 (≈ 5.52 µM)	0.25 (≈ 0.69 µM)	0.25 (≈ 0.69 µM)	0.12 (≈ 0.331 µM)	0.06 (≈ 0.166 µM)
CCC1(O)CN(c2cc3c(cc2F)c(=O)c(C(=O)O)cn3C2CC2)C1	0.12 (≈ 0.346 µM)	0.12 (≈ 0.346 µM)	0.015 (≈ 0.0433 µM)	1 (≈ 2.89 µM)	0.12 (≈ 0.346 µM)	0.25 (≈ 0.722 µM)	2 (≈ 5.77 µM)	0.25 (≈ 0.722 µM)	0.5 (≈ 1.44 µM)	0.12 (≈ 0.346 µM)	1 (≈ 2.89 µM)
CC1(CN)CN(c2c(F)cc3c(=O)c(C(=O)O)cn(C4CC4)c3c2F)C1	0.5 (≈ 1.38 µM)	1 (≈ 2.75 µM)	0.25 (≈ 0.688 µM)	2 (≈ 5.5 µM)	0.25 (≈ 0.688 µM)	0.5 (≈ 1.38 µM)	4 (≈ 11 µM)	1 (≈ 2.75 µM)	3 (≈ 8.26 µM)	0.5 (≈ 1.38 µM)	0.5 (≈ 1.38 µM)
O=C(O)c1cn(C2CC2)c2c(F)c(N3CCC3)c(F)cc2c1=O	0.25 (≈ 0.781 µM)	0.25 (≈ 0.781 µM)	0.015 (≈ 0.0468 µM)	1 (≈ 3.12 µM)	0.25 (≈ 0.781 µM)	0.25 (≈ 0.781 µM)	2 (≈ 6.24 µM)	0.25 (≈ 0.781 µM)	0.25 (≈ 0.781 µM)	0.12 (≈ 0.375 µM)	0.25 (≈ 0.781 µM)
CCn1cc(C(=O)O)c(=O)c2cc(F)c(N3CC(C)(N)C3)c(Cl)c21	0.03 (≈ 0.0848 µM)	0.25 (≈ 0.707 µM)	0.06 (≈ 0.17 µM)	1 (≈ 2.83 µM)	0.03 (≈ 0.0848 µM)	0.06 (≈ 0.17 µM)	1 (≈ 2.83 µM)	0.5 (≈ 1.41 µM)	0.06 (≈ 0.17 µM)	0.25 (≈ 0.707 µM)	0.25 (≈ 0.707 µM)
CCNCC1(C)CN(c2cc3c(cc2F)c(=O)c(C(=O)O)cn3C2CC2)C1	0.12 (≈ 0.321 µM)	0.25 (≈ 0.669 µM)	0.12 (≈ 0.321 µM)	1 (≈ 2.68 µM)	0.5 (≈ 1.34 µM)	0.25 (≈ 0.669 µM)	4 (≈ 10.7 µM)	0.25 (≈ 0.669 µM)	0.5 (≈ 1.34 µM)	0.5 (≈ 1.34 µM)	0.12 (≈ 0.321 µM)
NC1CN(c2cc3c(cc2F)c(=O)c2c(=O)[nH]sc2n3C2CC2)C1	0.007 (≈ 0.0202 µM)	0.06 (≈ 0.173 µM)	0.03 (≈ 0.0866 µM)	0.12 (≈ 0.346 µM)	0.03 (≈ 0.0866 µM)	0.03 (≈ 0.0866 µM)	0.25 (≈ 0.722 µM)	0.12 (≈ 0.346 µM)	0.015 (≈ 0.0433 µM)	0.06 (≈ 0.173 µM)	0.06 (≈ 0.173 µM)
CC(=O)CN(C)C1(C)CN(c2cc3c(cc2F)c(=O)c(C(=O)O)cn3C2CC2)C1	0.25 (≈ 0.623 µM)	0.25 (≈ 0.623 µM)	0.06 (≈ 0.149 µM)	2 (≈ 4.98 µM)	0.015 (≈ 0.0374 µM)	0.25 (≈ 0.623 µM)	4 (≈ 9.96 µM)	0.5 (≈ 1.25 µM)	0.5 (≈ 1.25 µM)	0.25 (≈ 0.623 µM)	0.25 (≈ 0.623 µM)
CC1(N)CN(c2c(F)cc3c(=O)c4c(=O)[nH]sc4n(C4CC4)c3c2F)C1	0.06 (≈ 0.159 µM)	0.12 (≈ 0.317 µM)	0.03 (≈ 0.0793 µM)	0.5 (≈ 1.32 µM)	0.06 (≈ 0.159 µM)	0.06 (≈ 0.159 µM)	0.5 (≈ 1.32 µM)	0.12 (≈ 0.317 µM)	0.06 (≈ 0.159 µM)	0.06 (≈ 0.159 µM)	0.12 (≈ 0.317 µM)
O=C(O)c1cn(C2CC2)c2c(F)c(N3CC(C(=O)O)C3)c(F)cc2c1=O	> 16	> 16	> 16	> 16	> 16	> 16	> 16	> 16	> 16	> 16	> 16
CN(C)C1CN(c2cc3c(cc2F)c(=O)c2c(=O)[nH]sc2n3C2CC2)C1	0.03 (≈ 0.0801 µM)	0.06 (≈ 0.16 µM)	0.03 (≈ 0.0801 µM)	0.5 (≈ 1.34 µM)	0.06 (≈ 0.16 µM)	0.06 (≈ 0.16 µM)	1 (≈ 2.67 µM)	0.06 (≈ 0.16 µM)	0.06 (≈ 0.16 µM)	0.06 (≈ 0.16 µM)	0.12 (≈ 0.32 µM)
N#CC1CN(c2c(F)cc3c(=O)c(C(=O)O)cn(C4CC4)c3c2F)C1	1 (≈ 2.9 µM)	1 (≈ 2.9 µM)	0.06 (≈ 0.174 µM)	4 (≈ 11.6 µM)	0.5 (≈ 1.45 µM)	1 (≈ 2.9 µM)	8 (≈ 23.2 µM)	1 (≈ 2.9 µM)	1 (≈ 2.9 µM)	0.5 (≈ 1.45 µM)	0.5 (≈ 1.45 µM)

From ChEMBL document CHEMBL1126625, “7-Azetidinylquinolones as antibacterial agents. Synthesis and structure-activity relationships” (J Med Chem, 1993)
